Active and inactive are the calls of the source. No cut-off for these calls is given here.

Series [1] deals with CNE-2. The series can be described thus: Induction of apoptosis in human CNE-2 cells at 0.5 to 2 uM by Hoechst 33258 staining based fluorescence microscopic analysis. The note with it: dose 0.5-2 µM. The format is functional, cell-based.
In series [2] the test system is T-24. Put plainly: Antiproliferative activity against human T24 cells assessed as cell growth inhibition by MTT assay. The format is functional, cell-based.
The subject of series [3] is CNE-2. The series can be described thus: Downregulation of CDK2 level in human CNE-2 cells measured after 48 hrs by Western blot analysis. The note with it: dose <= 2.0 µM. The class given is functional, cell-based.
The test system of series [4] is CNE-2. Put plainly: Induction of cell cycle arrest in human CNE-2 cells assessed as accumulation of cells at S phase measured after 48 hrs by flow cytometry analysis. The format is functional, cell-based. The note with it: dose 0.5-2 µM. On the technique in general: Flow cytometry measures light scatter and fluorescence of single cells or particles in a stream.
Series [5] relates to MGC-803. Put plainly: Toxicity in nude mouse xenografted with human MGC-803 cells assessed as morphological changes in lung at 8 mg/kg, ip administrated every other day for 21 days. The format is functional, organism-based. The settings on record: time 21.0 day. For orientation: A xenograft is tissue or cells of one species grown in another, often human tumour cells in immunodeficient mice.

For series [6], the system named is MGC-803. The series can be described thus: Antitumor activity against human MGC-803 cells xenografted in nude mouse assessed as reduction in tumor volume growth rate at 4 mg/kg, ip administrated every other day for 21 days relative to control. The format is functional. Set-up: scale not given: the % may be the effect or the level left. The settings on record: time 21 day.

A short description of series [7]: Toxicity in nude mouse xenografted with human MGC-803 cells assessed as effect on body weight at 4 mg/kg, ip administrated every other day measured at 9 to 14 days. The class given is organism-based. The settings on record: in vivo, time 9-14 day.
Series [8] concerns MGC-803. Put plainly: Antitumor activity against human MGC-803 cells xenografted in nude mouse assessed as reduction in tumor volume growth rate at 8 mg/kg, ip administrated every other day for 21 days relative to control. The format is functional. Set-up: scale not given: the % may be the effect or the level left. The settings on record: time 21 day.
Series [9] concerns CNE-2. The series can be described thus: Induction of cell cycle arrest in human CNE-2 cells assessed as accumulation of cells at S phase at 2 uM measured after 48 hrs by flow cytometry analysis (Rvb= 19.83%). The format is functional.
For series [10], the system named is CNE-2. Put plainly: Induction of apoptosis in human CNE-2 cells assessed as viable cells at 1 uM measured after 24 hrs by annexin-V-FITC and PI staining based flow cytometry analysis (reference value: 94.8%). The format is functional. The note with it: read-out: Activity.
Series [11] relates to CNE-2. Put plainly: Induction of apoptosis in human CNE-2 cells assessed as late apoptotic cells at 1 uM measured after 24 hrs by annexin-V-FITC and PI staining based flow cytometry analysis (reference value: 3.79%). The class given is functional.
In series [12] the test system is MGC-803. Put plainly: Toxicity in nude mouse xenografted with human MGC-803 cells assessed as morphological changes in heart at 8 mg/kg, ip administrated every other day for 21 days. The format is functional, organism-based. The settings on record: time 21.0 day.
Series [13] relates to CNE-2. Put plainly: Induction of cell cycle arrest in human CNE-2 cells assessed as accumulation of cells at G1 phase at 1 uM measured after 48 hrs by flow cytometry analysis (Rvb= 73.18%). The format is functional.
In series [14] the test system is MGC-803. Put plainly: Toxicity in nude mouse xenografted with human MGC-803 cells assessed as morphological changes in spleen at 8 mg/kg, ip administrated every other day for 21 days. The note with it: time 21.0 day. The format is functional, organism-based.
Series [15] relates to MGC-803. Put plainly: Toxicity in nude mouse xenografted with human MGC-803 cells assessed as morphological changes in kidney at 8 mg/kg, ip administrated every other day for 21 days. The class given is functional, organism-based. The note with it: time 21.0 day.
Series [16] concerns CNE-2. Put plainly: Induction of apoptosis in human CNE-2 cells assessed as early apoptotic cells at 1 uM measured after 24 hrs by annexin-V-FITC and PI staining based flow cytometry analysis (reference value: 0.439%). The class given is functional.
The test system of series [17] is CNE-2. Put plainly: Induction of apoptosis in human CNE-2 cells assessed as viable cells at 0.5 uM measured after 24 hrs by annexin-V-FITC and PI staining based flow cytometry analysis (reference value: 94.8%). The class given is functional. The settings on record: read-out: Activity.
The nature of series [18]: Toxicity in nude mouse xenografted with human MGC-803 cells assessed as effect on body weight at 4 mg/kg, ip administrated every other day for 21 days. The format is organism-based. The note with it: in vivo, 504 h, time 21 day.

As to `O=C1c2cccc3c(N4CCOCC4)c([N+](=O)[O-])cc(c23)C(=O)N1CCNCCN1C(=O)c2cccc3c(N4CCOCC4)c([N+](=O)[O-])cc(c23)C1=O`, the outcome in series [1] was Active. In [2], the half-maximal inhibitory concentration (IC50) was 1.24 µM. Further, the Activity entry was “Dose-Dependent Effect” in series [3]; “Dose-Dependent Effect” in series [4]; “Not toxic” in series [5]; 49.7% in [6]; “Non-Toxic” in [7]; 46% in series [8]. The Activity is 49.01% in [9]; 7.06% in series [11]; “Not toxic” in series [12]; 66.18% in series [13]; “Not toxic” in [14]; “Not toxic” in [15]. Moreover, in series [16], the Activity stood at 2.19%. The viability at 1 µM in [10] is 83.4%. The viability at 0.5 µM in [17] worked out at 82.6%.

For the compound `CN(C)CCN1C(=O)c2cccc3c(N4CCOCC4)c([N+](=O)[O-])cc(c23)C1=O`, the Activity result in series [18] is “Toxic”; in [3], “Dose-Dependent Effect”; in series [6], 59.9%; in [8], 56.1%; in series [9] it was 35.62%; in [11], 8.53%. Besides, the Activity in series [13] stood at 69.25%; in series [16] it was 3.01%. In [1], the outcome was Active. In addition, in series [2], the half-inhibitory concentration (IC50) worked out at 1.54 µM. Besides, in [10], the viability at 1 µM turned out to be 82.9%. In [17], the viability at 0.5 µM worked out at 84%.

In general, IC50 refers to the concentration at which inhibition is half-maximal.

(Values after ChEMBL document CHEMBL5252609, “Design, synthesis, and antitumor evaluation of morpholine substituted bisnaphthalimides as DNA targeting agents” (Bioorg Med Chem Lett, 2023).)
